Where only a bound is given, the exact number is not on record here.

Here are results for one substance from patent US11723944B2 (priority 2015, dated 2023).

The assay addresses BoNT/A holotoxin (Clostridium botulinum, UniProt P0DPI0).

On to “NH2-Dab(DNP)-R-[Lys(N3)-T-Dab-Pra]-L-Lys(DBCO-STP)-Tz4-G-Aib-L-[Pra-NYRWL-Lys(N3)] [Inh-2-STP]”, for which the “latest time after exposure with partial rescue” value was at most 3 h and the “rescue from internalized BoNT (SNAP-25 cleavage)” value is given as “partial rescue”.
